Where no end group is shown, it is not given here.
Key:
neurokinin-1 receptor = neurokinin-1 receptor (Rattus norvegicus, UniProt P14600); settings: in vivo; cited from earlier work
[1] = system: acute heart failure caused by viral infection; settings: human, in vivo
[2] = system: chronic heart failure caused by diastolic dysfunction; settings: human, in vivo
[3] = system: chronic heart failure caused by systolic dysfunction; settings: human, in vivo
[4] = system: isolated cardiac fibroblasts; settings: cited from earlier work

neurokinin-1 receptor, sequence (P14600 whole entry): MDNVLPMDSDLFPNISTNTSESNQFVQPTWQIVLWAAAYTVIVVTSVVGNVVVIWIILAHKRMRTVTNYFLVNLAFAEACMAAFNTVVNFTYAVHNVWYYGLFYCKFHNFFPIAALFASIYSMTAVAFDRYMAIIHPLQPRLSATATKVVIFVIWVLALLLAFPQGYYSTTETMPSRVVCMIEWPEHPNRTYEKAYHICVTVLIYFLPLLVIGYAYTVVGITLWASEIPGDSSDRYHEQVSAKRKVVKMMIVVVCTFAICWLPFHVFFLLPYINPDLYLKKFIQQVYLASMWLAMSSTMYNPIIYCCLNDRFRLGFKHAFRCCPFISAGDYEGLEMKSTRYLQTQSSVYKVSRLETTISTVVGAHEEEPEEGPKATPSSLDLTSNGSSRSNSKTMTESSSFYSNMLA

CC(=O)N[C@@H](Cc1c[nH]c2ccccc12)C(=O)OCc1cc(C(F)(F)F)cc(C(F)(F)F)c1 [L732138]
cardiac fibrosis in SHR (neurokinin-1 receptor): prevented | increase of fetal gene expression by cardiomyocytes in SHR (neurokinin-1 receptor): prevented | upregulation of endothelin-1 in SHR (neurokinin-1 receptor): prevented

[N-]=[N+]=O [nitrous oxide]
glutamate blood level [1]: lower than before | patient-reported respiratory rate and peripheral edema [1]: significant improvement in respiratory rate and peripheral edema | substance P blood level [1]: lower than before

botulinum toxin
glutamate blood level [2]: lower than before | patient-reported breath and pulmonary edema [2]: significant improvement in breath and pulmonary edema | substance P blood level [2]: lower than before | Substance P blood levels [3]: lower than before | patient-reported breath and fatigue [3]: significant improvement in breath and fatigue

substance P: sensory nerve neuropeptide (tachykinin) acting on the neurokinin-1 receptor (RPKPQQFFGLM; ends and bridges not checked; UniProt P20366 58-68, looked up)
fibroblast function [4]: no changes in fibroblast function were observed | genes related to cell-cell adhesion, cell-matrix adhesion, and extracellular matrix regulation [4]: transiently up-regulated
